One assay addresses T1, MALT1 (Homo sapiens, UniProt Q9UDY8).
T1 construct: Avi-tagged FL MALT-1 (Pharmaron, stored at −70° C.); Avi tag
T1 sequence (Q9UDY8 1-824): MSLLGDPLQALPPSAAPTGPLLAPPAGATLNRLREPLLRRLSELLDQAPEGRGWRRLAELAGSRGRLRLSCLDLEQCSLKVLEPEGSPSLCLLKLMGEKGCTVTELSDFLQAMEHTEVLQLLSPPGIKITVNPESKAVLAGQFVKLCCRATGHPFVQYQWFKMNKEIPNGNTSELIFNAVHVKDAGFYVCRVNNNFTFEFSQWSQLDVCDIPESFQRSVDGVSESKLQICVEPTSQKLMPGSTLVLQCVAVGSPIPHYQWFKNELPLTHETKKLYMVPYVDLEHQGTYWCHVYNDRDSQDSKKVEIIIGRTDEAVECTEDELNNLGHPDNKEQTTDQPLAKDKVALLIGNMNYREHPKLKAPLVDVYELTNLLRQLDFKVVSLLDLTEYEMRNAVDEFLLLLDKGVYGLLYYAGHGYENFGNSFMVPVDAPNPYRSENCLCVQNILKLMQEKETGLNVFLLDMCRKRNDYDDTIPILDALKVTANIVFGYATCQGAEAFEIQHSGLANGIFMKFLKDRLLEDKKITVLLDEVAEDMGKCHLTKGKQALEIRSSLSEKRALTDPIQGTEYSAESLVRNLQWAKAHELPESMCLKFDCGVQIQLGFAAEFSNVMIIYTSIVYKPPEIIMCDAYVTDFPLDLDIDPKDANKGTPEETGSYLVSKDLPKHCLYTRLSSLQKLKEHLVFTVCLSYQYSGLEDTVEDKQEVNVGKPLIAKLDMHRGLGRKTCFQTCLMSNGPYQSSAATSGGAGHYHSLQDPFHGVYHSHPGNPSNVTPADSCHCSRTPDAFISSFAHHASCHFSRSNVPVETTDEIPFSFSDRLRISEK
The experiment in a line: MALT-1 Fluorogenic Peptide Cleavage Assay (MALT1 inhibition assay). Format: biochemical. The conditions noted are these: Avi-tagged FL MALT-1, Ac-LRSR-AMC peptide substrate, 30 min pre-incubation, 90 min reaction. The procedure, abridged:
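IC50 from sigmoidal fits of % inhibition, with fluorescence (ex 342, em 441 nm) from AMC released from the quenched LRSR peptide after 90 min at room temperature. Full-length Avi-tagged MALT1 saw compound for 30 min first; final DMSO 2%.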

A further assay relates to NF-kB. Briefly: NF-kB reporter assay in Jurkat cells stimulated with aCD3/aCD28/PMA. The conditions noted are these: Homo sapiens, Jurkat, read-out: NF-kB Reporter Assay IC50. Format: cell-based. In outline: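 Stimulation used final aCD3 5 μg/mL, aCD28 5 μg/mL and PMA 0.03 μg/mL for 4 hr at 37° C, after 1 hr compound pretreatment of 25,000 serum-starved Jurkat cells per well. One-Glo luminescence gave IC50 values.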

Where [1] appears, read: Jurkat cells, 1 hr compound incubation, aCD3/aCD28/PMA stimulation 4 hr, One-Glo readout.

Read-outs that look alike come from different tables or passages of the source. A value given as a limit tells only on which side of the number the result lay.

Take `COc1ncc2cnn(C)c2c1NS(=O)(=O)c1ccc(-n2nccc2C(F)(F)F)nc1` [Example I-211, N-(6-Methoxy-1-Methyl-1H-Pyrazolo[4,3-C]Pyridin-7-yl)-6-(5-(Trifluoromethyl)-1H-Pyrazol-1-yl)Pyridine-3-Sulfonamide]: the figures for the IC50 on MALT1 and in the assay on NF-kB (setting [1]) were more than 2500 nM and 400 to 1000 nM, respectively.

On to `[2H]C([2H])([2H])n1ncc2ccc(OC)c(NS(=O)(=O)c3ccc(-n4cc(Cl)cn4)nc3)c21` [Example I-212, 6-(4-Chloro-1H-Pyrazol-1-yl)-N-(6-Methoxy-1-(Methyl-D3)-1H-Indazol-7-yl)Pyridine-3-Sulfonamide], for which the IC50 on MALT1 and in the assay on NF-kB (setting [1]) was less than 400 nM throughout.

Consider `[2H]C([2H])([2H])Oc1ccc2cnn(C)c2c1NS(=O)(=O)c1ccc(-n2cc(Cl)cn2)nc1` [Example I-213, 6-(4-Chloro-1H-Pyrazol-1-yl)-N-(6-(Methoxy-D3)-1-Methyl-1H-Indazol-7-yl)Pyridine-3-Sulfonamide], for which the IC50 against MALT1 and in the assay on NF-kB (setting [1]) was less than 400 nM each time.

For the compound `Cn1ncc2cccc(NS(=O)(=O)c3ccc(-c4cnc(C(F)(F)F)s4)nc3)c21` [Example I-214, N-(1-Methyl-1H-Indazol-7-yl)-6-(2-(Trifluoromethyl)Thiazol-5-yl)Pyridine-3-Sulfonamide], the results for the IC50 against MALT1 and with NF-kB (setting [1]) were 400 to 1000 nM and less than 400 nM, respectively.

In the case of `COCCn1ncc2cccc(NS(=O)(=O)c3ccc(-n4ccc(C(C)C)n4)nc3)c21` [Example I-215, 6-(3-isopropyl-1H-pyrazol-1-yl)-N-(1-(2-methoxyethyl)-1H-indazol-7-yl)pyridine-3-sulfonamide], the IC50 against MALT1 and in the assay on NF-kB (setting [1]) was more than 2500 nM each time.

For `COCCn1ncc2cccc(NS(=O)(=O)c3ccc(-n4nccc4C4CC4)nc3)c21` [Example I-216, 6-(5-Cyclopropyl-1H-Pyrazol-1-yl)-N-(1-(2-Methoxyethyl)-1H-Indazol-7-yl)Pyridine-3-Sulfonamide], the IC50 against MALT1 and with NF-kB (setting [1]) was more than 2500 nM throughout.

As to `COCCn1ncc2cccc(NS(=O)(=O)c3ccc(-n4cc(C)cn4)nc3)c21` [Example I-217, N-(1-(2-Methoxyethyl)-1H-Indazol-7-yl)-6-(4-Methyl-1H-Pyrazol-1-yl)Pyridine-3-Sulfonamide], the IC50 against MALT1 and in the assay on NF-kB (setting [1]) was more than 2500 nM throughout.

For `COCCn1ncc2cccc(NS(=O)(=O)c3ccc(-c4cnn(C)c4C)nc3)c21` [Example I-218, 6-(1,5-Dimethyl-1H-Pyrazol-4-yl)-N-(1-(2-Methoxyethyl)-1H-Indazol-7-yl)Pyridine-3-Sulfonamide], the IC50 against MALT1 and in the assay on NF-kB (setting [1]) was more than 2500 nM throughout.

As to `Cn1ncc2cccc(NS(=O)(=O)c3ccc(-c4ccc(Cl)nc4)nc3)c21` [Example I-219, 6′-Chloro-N-(1-Methyl-1H-Indazol-7-yl)-[2,3′-Bipyridine]-5-Sulfonamide], the IC50 (as a rule, the concentration that inhibits the measured activity by half) was more than 2500 nM at MALT1 and less than 400 nM in the assay on NF-kB (setting [1]).

Take `Cn1ncc2cccc(NS(=O)(=O)c3ccc(-c4cccnc4Cl)nc3)c21` [Example I-220, 2′-Chloro-N-(1-Methyl-1H-Indazol-7-yl)-[2,3′-Bipyridine]-5-Sulfonamide]: the IC50 was more than 2500 nM against MALT1 and 400 to 1000 nM in the assay with NF-kB (setting [1]).

In the case of `CN(C)c1ncccc1-c1ccc(S(=O)(=O)Nc2cccc3cnn(C)c23)cn1` [Example I-221, 2′-(Dimethylamino)-N-(1-Methyl-1H-Indazol-7-yl)-[2,3′-Bipyridine]-5-Sulfonamide], the IC50 on MALT1 is more than 2500 nM; with NF-kB, 1000 to 2500 nM.

In the case of `COc1ccc2cnn(C)c2c1NS(=O)(=O)c1ccc(N2CCOC2=O)nc1` [Example I-222, N-(6-Methoxy-1-Methyl-1H-Indazol-7-yl)-6-(2-Oxooxazolidin-3-yl)Pyridine-3-Sulfonamide], the IC50 against MALT1 was more than 2500 nM; in the assay with NF-kB (setting [1]) it was less than 400 nM.

As to `COc1ccc2cnn(C)c2c1NS(=O)(=O)c1ccc(N2CC(C)(C)OC2=O)nc1` [Example I-223, 6-(5,5-Dimethyl-2-Oxooxazolidin-3-yl)-N-(6-Methoxy-1-Methyl-1H-Indazol-7-yl)Pyridine-3-Sulfonamide], the IC50 against MALT1 was more than 2500 nM; with NF-kB (setting [1]), less than 400 nM.

As to `Cn1ncc2cccc(NS(=O)(=O)c3ccc(N4CC(C)(C)OC4=O)nc3)c21` [Example I-224, 6-(5,5-Dimethyl-2-Oxooxazolidin-3-yl)-N-(1-Methyl-1H-Indazol-7-yl)Pyridine-3-Sulfonamide], the IC50 against MALT1 was more than 2500 nM; in the assay on NF-kB (setting [1]), less than 400 nM.

`COc1ccc2cnn(C)c2c1NS(=O)(=O)c1ccc(N2CCN(C)C2=O)nc1` [Example I-225, N-(6-Methoxy-1-Methyl-1H-Indazol-7-yl)-6-(3-Methyl-2-Oxoimidazolidin-1-yl)Pyridine-3-Sulfonamide]: the half-inhibitory concentration (IC50) against MALT1 was 400 to 1000 nM; in the assay with NF-kB (setting [1]) it was less than 400 nM.

Take `CN1CCN(c2ccc(S(=O)(=O)Nc3cccc4cnn(C)c34)cn2)C1=O` [Example I-226, N-(1-Methyl-1H-Indazol-7-yl)-6-(3-Methyl-2-Oxoimidazolidin-1-yl)Pyridine-3-Sulfonamide]: the IC50 on MALT1 is more than 2500 nM; in the assay on NF-kB (setting [1]) it was less than 400 nM.

For the compound `Cn1ncc2cccc(NS(=O)(=O)c3ccc(-n4ncc5c4CCCC5)nc3)c21` [Example I-227, N-(1-Methyl-1H-Indazol-7-yl)-6-(4,5,6,7-Tetrahydro-1H-Indazol-1-yl)Pyridine-3-Sulfonamide], the values for the IC50 on MALT1 and in the assay on NF-kB (setting [1]) were 1000 to 2500 nM and less than 400 nM, respectively.

For `Cn1cc(-c2ccc(S(=O)(=O)Nc3cccc4cnn(C)c34)cn2)nc1C(F)(F)F` [Example I-228, N-(1-Methyl-1H-Indazol-7-yl)-6-(1-Methyl-2-(Trifluoromethyl)-1H-Imidazol-4-yl)Pyridine-3-Sulfonamide], the IC50 was 1000 to 2500 nM on MALT1 and less than 400 nM in the assay on NF-kB (setting [1]).

Turning to `[2H]C([2H])([2H])n1ncc2ccc(OC)c(NS(=O)(=O)c3ccc(-n4cc(C5CC5)cn4)nc3)c21` [Example I-229, 6-(4-Cyclopropyl-1H-Pyrazol-1-yl)-N-(6-Methoxy-1-(Methyl-D3)-1H-Indazol-7-yl)Pyridine-3-Sulfonamide], the IC50 against MALT1 and in the assay on NF-kB (setting [1]) was less than 400 nM in each case.

Regarding `Cn1ncc2cccc(NS(=O)(=O)c3ccc(N4CCOC4=O)nc3)c21` [Example I-230, N-(1-Methyl-1H-Indazol-7-yl)-6-(2-Oxooxazolidin-3-yl)Pyridine-3-Sulfonamide], the IC50 on MALT1 and in the assay with NF-kB (setting [1]) was more than 2500 nM each time.

Take `COCCn1ncc2cccc(NS(=O)(=O)c3ccc(-n4ccc(C5CC5)n4)nc3)c21` [Example I-231, 6-(3-Cyclopropyl-1H-Pyrazol-1-yl)-N-(1-(2-Methoxyethyl)-1H-Indazol-7-yl)Pyridine-3-Sulfonamide]: the IC50 on MALT1 and in the assay with NF-kB (setting [1]) was more than 2500 nM in each case.

Turning to `COCCn1ncc2cccc(NS(=O)(=O)c3ccc(-n4nccc4C(C)C)nc3)c21` [Example I-232, 6-(5-isopropyl-1H-pyrazol-1-yl)-N-(1-(2-methoxyethyl)-1H-indazol-7-yl)pyridine-3-sulfonamide], the IC50 on MALT1 and with NF-kB (setting [1]) was more than 2500 nM each time.

Regarding `Cn1ncc2cccc(NS(=O)(=O)c3ccc(-n4cc5c(n4)CCCC5)nc3)c21` [Example I-233, N-(1-methyl-1H-indazol-7-yl)-6-(4,5,6,7-tetrahydro-2H-indazol-2-yl)pyridine-3-sulfonamide], the IC50 against MALT1 is 400 to 1000 nM; in the assay with NF-kB (setting [1]), less than 400 nM.

(Values after US20240150365A1 (Hotspot Therapeutics, Inc., priority 2022, published 2024).)
